Measurements from patent US20240368163A1, “COMPOUNDS AND METHODS FOR MODULATING SPLICING” (REMIX THERAPEUTICS INC., priority 2021, published 2024).

What was measured:
Type in all cases: cell-based, human
HTT [1] = experiment: HiBiT protein abundance assay, HTT; conditions: Homo sapiens, K562, 24 h, Table 13A, modified K562 cells
Outline: (§1)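 K562 cells with endogenous HiBiT-tagged target were treated 24 h at 37 °C with compound (10-point 3-fold dilution, top 10 μM final, DMSO ≤0.25%). Lytic LgBiT luminescence was normalized to unmodified K562 (baseline) and DMSO-treated tagged cells; IC50 interpolated at 50% from four-parameter logistic fit.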

Target C [2] = experiment: Splicing RT-qPCR panel, Target C canonical junction (CJ) mRNA; conditions: Homo sapiens, RT-qPCR panel, canonical junction mRNA; compound concentration having 50% response in CJ decrease; read-out: Target C IC50 (decrease in CJ mRNA levels)
Outline: (§2)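 A673 or K562 cells were treated 24 h at 37 °C with an 11-point 3-fold dilution series (top 10 uM final, DMSO ≤0.25%). Lysates underwent one-step RT-qPCR for canonical (CJ) and alternative (AJ) junctions; Ct normalized to GAPDH, GUSB or PPIA and DMSO control via 2^(−ΔΔCt), expressed as percentage response.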

Target C [3] = experiment: HiBiT protein abundance assay, Target C; conditions: Table 13A, modified K562 cells
Outline: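 HiBiT knock-in K562-derived cells, 10000 cells/well, were treated 24 h at 37 °C with a 10-point 3-fold dilution series (top 10 μM final, DMSO ≤0.25%). Lytic HiBiT luminescence was normalized to unmodified K562 and DMSO controls; IC50 was interpolated at 50% from a four-parameter logistic fit.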

SMN2 = experiment: Splicing RT-qPCR panel, SMN2 canonical junction (CJ) mRNA; conditions: Homo sapiens, RT-qPCR panel, canonical junction mRNA; compound concentration having 50% response in CJ decrease; read-out: SMN2 IC50 (decrease in CJ mRNA levels)
Outline: as §2

HTT [4] = experiment: Splicing RT-qPCR assay, HTT mRNA canonical junction (CJ) and alternative junction (AJ); conditions: Homo sapiens; for AC50: increase in AJ mRNA
Outline: as §2

MYB [5] = experiment: HiBiT protein abundance assay, MYB; conditions: Homo sapiens, K562, 24 h, Table 13A, modified K562 cells
Outline: as §1

MYB [6] = experiment: Splicing RT-qPCR assay, MYB mRNA canonical junction (CJ) and alternative junction (AJ); conditions: Homo sapiens; for AC50: increase in AJ mRNA
Outline: as §2

[7] = 24 h, decrease in CJ mRNA, A673 or K562 cells, 24 hours treatment, RT-qPCR, read-out: HTT CJ IC50
[8] = 24 h, A673 or K562 cells, 24 hours treatment, RT-qPCR
[9] = RT-qPCR panel, canonical junction mRNA, compound concentration having 50% response in CJ decrease, read-out: HTT IC50 (decrease in CJ mRNA levels)
[10] = 24 h, decrease in CJ mRNA, A673 or K562 cells, 24 hours treatment, RT-qPCR, read-out: MYB CJ IC50
[11] = RT-qPCR panel, canonical junction mRNA, compound concentration having 50% response in CJ decrease, read-out: MYB IC50 (decrease in CJ mRNA levels)

Compound	IC50 (HTT [1])	IC50 (Target C [2])	IC50 (Target C [3]; Homo sapiens, K562, 24 h)	IC50 (SMN2)	IC50 (HTT [4]; [7])	AC50 (HTT [4]; [8])	IC50 (HTT [4]; [9])	IC50 (MYB [5])	IC50 (MYB [6]; [10])	AC50 (MYB [6]; [8])	IC50 (MYB [6]; [11])	IC50 (Target C [3]; 24 hours)
CC(C)(C)NC1CCN(c2ccc(-c3ccc(-n4cccn4)c4cn[nH]c34)nn2)C1 (stereo not shown) [Compound 310]	1000 to 10000 nM	> 10000 nM	1000 to 10000 nM	100 to 1000 nM	1000 to 10000 nM	1000 to 10000 nM	1000 to 10000 nM	1000 to 10000 nM	1000 to 10000 nM	> 10000 nM	1000 to 10000 nM	–
CN(c1ccc(-c2ccc(-c3cnn(C4CC4)n3)c3cn[nH]c23)nn1)[C@@H]1C[C@H]2CC[C@@H](C1)N2 [Compound 312, (1R,3s,5S)-N-(6-(4-(2-cyclopropyl-2H-1,2,3-triazol-4-yl)-1H-indazol-7-yl)pyridazin-3-yl)-N-methyl-8-azabicyclo[3.2.1]octan-3-amine]	100 to 1000 nM	1000 to 10000 nM	1000 to 10000 nM	100 to 1000 nM	1000 to 10000 nM	1000 to 10000 nM	1000 to 10000 nM	100 to 1000 nM	1000 to 10000 nM	100 to 1000 nM	1000 to 10000 nM	–
CN(c1ccc(-c2ccc(-c3cnn(C)n3)c3cn[nH]c23)nn1)C1CCNCC1 [Compound 315, N-methyl-6-[4-(2-methyl-1,2,3-triazol-4-yl)-1H-indazol-7-yl]-N-(piperidin-4-yl)pyridazin-3-amine]	100 to 1000 nM	> 10000 nM	> 10000 nM	100 to 1000 nM	1000 to 10000 nM	1000 to 10000 nM	1000 to 10000 nM	100 to 1000 nM	1000 to 10000 nM	1000 to 10000 nM	1000 to 10000 nM	–
Cn1ncc(-c2ccc(-c3ccc(OC4CC(C)(C)NC(C)(C)C4)nn3)c3[nH]ncc23)n1 [Compound 316]	100 to 1000 nM	1000 to 10000 nM	100 to 1000 nM	< 100 nM	100 to 1000 nM	100 to 1000 nM	100 to 1000 nM	100 to 1000 nM	100 to 1000 nM	100 to 1000 nM	100 to 1000 nM	–
CCn1ncc(-c2ccc(-c3ccc(N(C)[C@@H]4C[C@H]5CC[C@@H](C4)N5)nn3)c3[nH]ncc23)n1 [Compound 317, N-{6-[4-(2-ethyl-1,2,3-triazol-4-yl)-1H-indazol-7-yl]pyridazin-3-yl}-N-methyl-8-azabicyclo[3.2.1]octan-3-amine]	100 to 1000 nM	1000 to 10000 nM	100 to 1000 nM	1000 to 10000 nM	100 to 1000 nM	100 to 1000 nM	100 to 1000 nM	100 to 1000 nM	100 to 1000 nM	100 to 1000 nM	100 to 1000 nM	–
CN(c1ccc(-c2ccc(-c3cnn(CC4CC4)n3)c3cn[nH]c23)nn1)[C@@H]1C[C@H]2CC[C@@H](C1)N2 [Compound 318, N-(6-{4-[2-(cyclopropylmethyl)-1,2,3-triazol-4-yl]-1H-indazol-7-yl}pyridazin-3-yl)-N-methyl-8-azabicyclo[3.2.1]octan-3-amine]	1000 to 10000 nM	1000 to 10000 nM	1000 to 10000 nM	1000 to 10000 nM	1000 to 10000 nM	1000 to 10000 nM	1000 to 10000 nM	1000 to 10000 nM	1000 to 10000 nM	1000 to 10000 nM	1000 to 10000 nM	–
Cn1cc(-c2c(F)cc(-c3ccc(OC4CC(C)(C)NC(C)(C)C4)nn3)c3[nH]ncc23)cn1 [Compound 319, 5-fluoro-4-(1-methylpyrazol-4-yl)-7-{6-[(2,2,6,6-tetramethylpiperidin-4-yl)oxy]pyridazin-3-yl}-1H-indazole]	100 to 1000 nM	1000 to 10000 nM	1000 to 10000 nM	< 100 nM	100 to 1000 nM	100 to 1000 nM	100 to 1000 nM	100 to 1000 nM	100 to 1000 nM	1000 to 10000 nM	100 to 1000 nM	–
CN(c1ccc(-c2cc(F)c(-c3cnn(C)c3)c3cn[nH]c23)nn1)C1CC(C)(C)NC(C)(C)C1 [Compound 320, 6-[5-fluoro-4-(1-methylpyrazol-4-yl)-1H-indazol-7-yl]-N-methyl-N-(2,2,6,6-tetramethylpiperidin-4-yl)pyridazin-3-amine]	100 to 1000 nM	1000 to 10000 nM	–	< 100 nM	100 to 1000 nM	100 to 1000 nM	100 to 1000 nM	100 to 1000 nM	100 to 1000 nM	–	100 to 1000 nM	100 to 1000 nM
Cn1ncc(-c2ccc(-c3ccc(O[C@@H]4C[C@H]5CC[C@@H](C4)N5)nn3)c3[nH]ncc23)n1 [Compound 321, 7-{6-[(1R,3S,5S)-8-azabicyclo[3.2.1]octan-3-yloxy]pyridazin-3-yl}-4-(2-methyl-1,2,3-triazol-4-yl)-1H-indazole]	100 to 1000 nM	100 to 1000 nM	100 to 1000 nM	< 100 nM	100 to 1000 nM	100 to 1000 nM	100 to 1000 nM	100 to 1000 nM	100 to 1000 nM	100 to 1000 nM	100 to 1000 nM	–
Cn1ncc(-c2ccc(-c3ccc(N[C@@H]4C[C@H]5CC[C@@H](C4)N5)nn3)c3[nH]ncc23)n1 [Compound 322]	< 100 nM	< 100 nM	< 100 nM	< 100 nM	–	< 100 nM	< 100 nM	< 100 nM	< 100 nM	< 100 nM	< 100 nM	–
Cn1cc(-c2ccc(-c3ccc(O[C@@H]4C[C@H]5CC[C@@H](C4)N5)nn3)c3[nH]ncc23)nn1 [Compound 323, 7-{6-[(1R,3S,5S)-8-azabicyclo[3.2.1]octan-3-yloxy]pyridazin-3-yl}-4-(1-methyl-1,2,3-triazol-4-yl)-1H-indazole]	100 to 1000 nM	1000 to 10000 nM	1000 to 10000 nM	< 100 nM	100 to 1000 nM	100 to 1000 nM	100 to 1000 nM	100 to 1000 nM	100 to 1000 nM	100 to 1000 nM	100 to 1000 nM	–
Cn1cc(-c2ccc(-c3ccc(N[C@@H]4C[C@H]5CC[C@@H](C4)N5)nn3)c3[nH]ncc23)nn1 [Compound 324, (1R,3s,5S)-N-(6-(4-(1-methyl-1H-1,2,3-triazol-4-yl)-1H-indazol-7-yl)pyridazin-3-yl)-8-azabicyclo[3.2.1]octan-3-amine]	1000 to 10000 nM	> 10000 nM	1000 to 10000 nM	100 to 1000 nM	1000 to 10000 nM	1000 to 10000 nM	1000 to 10000 nM	1000 to 10000 nM	1000 to 10000 nM	1000 to 10000 nM	1000 to 10000 nM	–
